Results as given in PubChem BioAssay (NCI).
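96-well plates; 48 h exposure; 5 concentrations. Endpoints by linear interpolation between flanking doses. Not reached: highest tested concentration assigned. Abbreviation: GI50, concentration required for 50% inhibition of growth. TGI marks complete inhibition of growth.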

Columns and labels:
Experiment in all cases: NCI-60 cell line screen, 48 h
LOX IMVI melanoma = system: LOX IMVI melanoma
RXF 393 renal = system: RXF 393 renal
HOP-62 NSCLC = system: HOP-62 NSCLC
MOLT-4 leukemia = system: MOLT-4 leukemia
NCI-H460 lung = system: NCI-H460 lung
UACC-257 melanoma = system: UACC-257 melanoma
IGROV1 ovarian = system: IGROV1 ovarian
HT29 colon = system: HT29 colon
COLO 205 colon = system: COLO 205 colon
T-47D breast = system: T-47D breast

SMILES	TGI (LOX IMVI melanoma)	TGI (RXF 393 renal)	TGI (HOP-62 NSCLC)	TGI (MOLT-4 leukemia)	TGI (NCI-H460 lung)	TGI (UACC-257 melanoma)	TGI (IGROV1 ovarian)	TGI (HT29 colon)	GI50 (HOP-62 NSCLC)	GI50 (COLO 205 colon)	TGI (COLO 205 colon)	GI50 (NCI-H460 lung)	GI50 (UACC-257 melanoma)	GI50 (IGROV1 ovarian)	GI50 (HT29 colon)	GI50 (LOX IMVI melanoma)	GI50 (RXF 393 renal)	GI50 (MOLT-4 leukemia)	GI50 (T-47D breast)	TGI (T-47D breast)
CN(C)c1ccc(/C=N\N2C(=O)c3ccccc3C2=O)cc1	> 100 µM	> 100 µM	> 100 µM	> 100 µM	> 100 µM	> 100 µM	> 100 µM	> 100 µM												
CN(C)c1n/c(=N/c2ncn[nH]2)ss1	> 100 µM	> 100 µM	> 100 µM	> 100 µM	> 100 µM	> 100 µM	> 100 µM	> 100 µM												
CNCCCNc1nc2ccccc2c2c(=O)c3cc(Cl)ccc3sc12			2.44 µM		3.06 µM	3.31 µM	3.18 µM	3.13 µM	1.13 µM	1.88 µM	3.54 µM	1.61 µM	1.8 µM	1.51 µM	1.67 µM					
CCOC(=O)Nc1ccc(-c2nc(-c3cccc(OC)c3)c(-c3ccnc(Br)c3)[nH]2)cc1	3.32 µM	2.94 µM		> 100 µM	8.41 µM	7.9 µM	9.03 µM	> 100 µM		3.23 µM	> 100 µM	2.79 µM	2.68 µM	2.69 µM	3.45 µM	1.56 µM	0.712 µM	2.21 µM	1.96 µM	6.47 µM
CN(CCCl)c1ccc(/C=C/C2=[N+](C)c3ccccc3C2(C)C)cc1		10.5 µM	10.9 µM	1.4 µM	10.6 µM	7.57 µM	18.6 µM	11.2 µM	1.07 µM	0.339 µM	1.56 µM	0.679 µM	0.657 µM	1.73 µM	0.307 µM		1.57 µM	0.308 µM	0.706 µM	10.2 µM
CNC1C(O)C(OC2C(N)CC(N)C(OC3OC(C(C)O)C(O)C(O)C3N)C2O)OCC1(C)O (centres undefined)	> 100 µM		> 100 µM	> 100 µM	> 100 µM		> 100 µM	> 100 µM			> 100 µM									> 100 µM
O=C(NNC(=O)c1cc(/C=C/c2cccc([N+](=O)[O-])c2)[nH]c(=S)n1)Nc1ccc(Cl)cc1	37.3 µM	> 100 µM	> 100 µM	72 µM	> 100 µM	> 100 µM	> 100 µM	> 100 µM			37.2 µM									
COC(OC)[C@@H](C)[C@H](O)[C@](C)(O)C1OC(C)(C)OC(C(C)C=C(C)C)C1C (some centres undefined)	> 100 µM	> 100 µM	> 100 µM	> 100 µM	> 100 µM	> 100 µM	> 100 µM	> 100 µM			> 100 µM									
COc1ccc(-c2ccc(/C=N/n3c(C)nn(CN4CCN(C)CC4)c3=S)o2)c([N+](=O)[O-])c1		> 100 µM	> 100 µM	61.3 µM	> 100 µM		> 100 µM	> 100 µM	32.9 µM	52.5 µM	> 100 µM	29.3 µM		63.4 µM	28 µM		30.2 µM	20.5 µM	45.6 µM	> 100 µM
O=C(NO)C(=O)Nc1ccc(Cl)cc1[N+](=O)[O-]	> 100 µM	> 100 µM	> 100 µM	> 100 µM	> 100 µM	> 100 µM	> 100 µM	> 100 µM			> 100 µM									
O=C(NCCCCCCCCNC(=O)c1cccc2ccccc12)c1cccc2ccccc12	> 100 µM	7.74 µM	13.5 µM	> 100 µM	> 100 µM	> 100 µM	> 76.1 µM	> 100 µM			> 100 µM									
CCCCCCCCCCCCN(O)C(=O)c1ccccc1	> 100 µM	> 100 µM		> 100 µM		49.1 µM	> 100 µM	> 100 µM												
O=C1c2c(O)cc(O)cc2OC(c2ccc(O)cc2O)C1O (centres undefined)	> 100 µM	> 100 µM	> 100 µM		> 100 µM	> 100 µM	> 100 µM	> 100 µM	> 100 µM	> 100 µM	> 100 µM		> 100 µM	> 100 µM	> 100 µM	> 100 µM				> 100 µM
CCOC(=O)NC(=O)c1cn(CCN2CCN(C(=O)CCCCCCCCCCNc3ncnc4nc[nH]c34)CC2)c(=O)[nH]c1=O	> 100 µM	> 100 µM	> 100 µM	> 100 µM	> 100 µM	> 100 µM	> 100 µM	> 100 µM			> 100 µM									
COc1ccc(/C(=N/NC(N)=O)C(c2ccc(OC)cc2)C2C(=O)Oc3ccccc32)cc1 (centres undefined)	> 100 µM	> 100 µM	> 100 µM	> 100 µM	> 100 µM	> 100 µM	> 100 µM	> 100 µM			> 100 µM									
Cc1cc(C)c(S(=O)(=O)ONC(=O)OC(C)(C)C)c(C)c1	> 100 µM	> 100 µM	> 100 µM	> 100 µM	> 100 µM	> 100 µM	> 100 µM	> 100 µM			> 100 µM									
COc1cc(-c2cc(=O)c3cc(C)c(C)c(C(=O)O)c3o2)cc(OC)c1OC	> 100 µM		> 100 µM	> 100 µM	> 100 µM	> 100 µM	> 100 µM	> 100 µM			> 100 µM									
Nc1nnc(Cn2c(-c3ccccc3)nc3ccc(Br)cc3c2=O)s1	> 100 µM		> 100 µM	48.8 µM	> 100 µM		> 100 µM	> 100 µM	36.8 µM	64.6 µM	> 100 µM	> 100 µM		18.3 µM	48.1 µM	26.1 µM		17.7 µM	> 100 µM	> 100 µM
Cc1cc(C)nc(SC2=C(Nc3cccc(Cl)c3C)C(=O)N(Cc3ccccc3)C2=O)n1	> 160 µM		> 160 µM	> 160 µM	> 160 µM	> 160 µM	> 160 µM	> 160 µM	> 160 µM	> 160 µM	> 160 µM	> 160 µM	> 160 µM	> 160 µM	> 160 µM	> 160 µM		> 160 µM	> 160 µM	> 160 µM
